The supplement of paper PMC10307832

Assays:
Assay in all cases: relative viability (nuclei count vs DMSO), 5 days (fraction); higher = more cells survive
Ibrutinib + Pictilisib = compound: C=CC(=O)N1CCC[C@@H](n2nc(-c3ccc(Oc4ccccc4)cc3)c3c(N)ncnc32)C1 [Ibrutinib] + CS(=O)(=O)N1CCN(Cc2cc3nc(-c4cccc5[nH]ncc45)nc(N4CCOCC4)c3s2)CC1 [Pictilisib] (partner 1 µM)
Method in brief: (§1)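 Lung cancer cell lines were seeded in 1536-well plates and dosed by pin tool the next day, with either a single drug or a fixed anchor-drug dose combined with five library-drug doses (not always all listed) spaced in √10 steps. Five days later, one step fixed the cells and stained their nuclei (final 0.05% Triton X-100, 1% formaldehyde, 1 ug/ml Hoechst), and nuclei were counted on 4× images. Relative viability is the nuclei count in treated wells divided by the count in vehicle wells, and each value is the median of duplicate plates.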

Ibrutinib + AZD7762 = compound: C=CC(=O)N1CCC[C@@H](n2nc(-c3ccc(Oc4ccccc4)cc3)c3c(N)ncnc32)C1 [Ibrutinib] + NC(=O)Nc1cc(-c2cccc(F)c2)sc1C(=O)N[C@H]1CCCNC1 [AZD7762] (partner 0.2 µM)
Method in brief: as §1

PAC-1 + Trametinib = compound: C=CCc1cccc(/C=N/NC(=O)CN2CCN(Cc3ccccc3)CC2)c1O [PAC-1] + CC(=O)Nc1cccc(-n2c(=O)n(C3CC3)c(=O)c3c(Nc4ccc(I)cc4F)n(C)c(=O)c(C)c32)c1 [Trametinib] (partner 0.02 µM)
Method in brief: as §1

PAC-1 + AZD7762 = compound: C=CCc1cccc(/C=N/NC(=O)CN2CCN(Cc3ccccc3)CC2)c1O [PAC-1] + NC(=O)Nc1cc(-c2cccc(F)c2)sc1C(=O)N[C@H]1CCCNC1 [AZD7762] (partner 0.2 µM)
Method in brief: as §1

Cell Line | relative viability (Ibrutinib + Pictilisib; first compound 0.005 µM) | relative viability (Ibrutinib + Pictilisib; first compound 0.01581 µM) | relative viability (Ibrutinib + Pictilisib; first compound 0.05 µM) | relative viability (Ibrutinib + Pictilisib; first compound 0.1581 µM) | relative viability (Ibrutinib + Pictilisib; first compound 0.5 µM) | relative viability (Ibrutinib + AZD7762; first compound 0.005 µM) | relative viability (Ibrutinib + AZD7762; first compound 0.01581 µM) | relative viability (Ibrutinib + AZD7762; first compound 0.05 µM) | relative viability (Ibrutinib + AZD7762; first compound 0.1581 µM) | relative viability (Ibrutinib + AZD7762; first compound 0.5 µM) | relative viability (PAC-1 + Trametinib; first compound 0.02 µM) | relative viability (PAC-1 + Trametinib; first compound 0.06325 µM) | relative viability (PAC-1 + Trametinib; first compound 0.2 µM) | relative viability (PAC-1 + Trametinib; first compound 2 µM) | relative viability (PAC-1 + AZD7762; first compound 0.02 µM) | relative viability (PAC-1 + AZD7762; first compound 0.06325 µM) | relative viability (PAC-1 + AZD7762; first compound 0.2 µM) | relative viability (PAC-1 + AZD7762; first compound 2 µM)
HARA | 0.185 | 0.515 | 0.383 | 0.412 | 0.232 | 0.495 | 0.449 | 0.602 | 0.318 | 0.408 | 0.632 | 0.697 | 0.621 | 0.473 | 0.229 | 0.304 | 0.0838 | 0.457
HCC-827 | 0.916 | 0.909 | 1.02 | 1.08 | 0.458 | 0.157 | 0.193 | 0.323 | 0.167 | 0.12 | 0.505 | 0.569 | 0.528 | 0.536 | 0.239 | 0.191 | 0.235 | 0.237
NCI-H647 | 0.28 | 0.418 | 0.357 | 0.323 |  | 0.413 | 0.534 | 0.529 | 0.3 | 0.497 | 0.456 | 0.535 | 0.446 | 0.399 | 0.44 | 0.589 | 0.502 | 0.467
NCI-H1651 | 0.502 | 0.482 | 0.466 | 0.627 | 0.643 | 0.306 | 0.459 | 0.452 | 0.464 | 0.48 | 0.85 | 0.862 | 0.765 | 0.855 | 0.44 | 0.358 | 0.447 | 0.467
HCC-78 | 0.199 | 0.202 | 0.177 | 0.159 | 0.172 |  | 0.732 | 0.251 | 0.452 | 0.592 | 0.725 | 0.725 | 0.849 | 0.782 | 0.676 | 0.558 | 0.596 | 0.573
NCI-H2085 | 0.432 | 0.473 | 0.48 | 0.369 | 0.417 | 0.906 | 0.926 | 0.919 | 0.926 | 0.729 | 0.452 | 0.521 | 0.458 | 0.629 | 0.994 | 1 | 0.907 | 1.1
LU99A | 0.274 | 0.34 | 0.355 | 0.324 | 0.336 | 0.258 | 0.357 | 0.338 | 0.438 | 0.288 | 0.542 | 0.475 | 0.539 | 0.564 | 0.465 | 0.392 | 0.264 | 0.179
LCLC-97TM1 | 0.114 | 0.203 | 0.263 | 0.156 | 0.18 | 0.276 | 0.326 | 0.317 | 0.268 | 0.219 | 0.179 | 0.196 |  | 0.221 | 0.211 | 0.267 | 0.23 | 0.345
LC-2-ad | 0.335 | 0.19 | 0.53 | 0.525 | 0.299 | 0.905 | 0.801 | 0.861 | 0.786 | 0.599 | 0.933 | 0.919 | 0.897 | 0.954 | 0.76 | 0.868 | 0.859 | 0.902
NCI-H1975 | 0.264 | 0.271 | 0.234 | 0.313 | 0.105 | 0.647 | 0.556 | 0.517 | 0.522 | 0.342 | 0.391 | 0.424 | 0.325 | 0.349 | 0.669 | 0.666 | 0.755 | 0.698
NCI-H1793 |  | 0.466 | 0.323 | 0.357 | 0.274 | 0.395 | 0.33 | 0.408 | 0.85 | 0.13 | 0.363 | 0.423 | 0.39 | 0.405 | 0.501 | 0.587 | 0.547 | 0.568
HCC-366 |  | 0.125 | 0.141 | 0.124 | 0.14 | 0.329 | 0.233 | 0.247 | 0.347 | 0.303 | 0.339 | 0.318 | 0.312 | 0.365 | 0.265 | 0.309 | 0.251 | 0.312
NCI-H2347 | 0.648 | 0.672 | 0.587 | 0.299 | 0.535 | 0.739 | 0.733 | 0.69 | 0.665 | 0.696 | 0.309 | 0.285 | 0.297 | 0.269 | 0.825 | 0.756 | 0.675 | 0.902
NCI-H2405 | 0.33 | 0.384 | 0.282 |  | 0.485 | 0.778 | 0.65 |  |  | 0.829 | 0.684 | 0.688 | 0.667 | 0.73 | 0.648 | 0.828 | 0.86 | 0.802
HCC-44 | 0.593 | 0.467 | 0.527 | 0.599 | 0.694 | 1.11 |  |  |  | 1.07 | 1.05 | 1.08 | 1.07 | 1.02 | 1.09 | 0.998 | 1.03 | 0.992
NCI-H1666 | 0.388 | 0.358 | 0.31 | 0.409 | 0.235 | 0.803 | 0.777 | 0.843 | 0.892 | 0.783 | 0.909 | 0.868 | 0.862 | 0.914 | 0.905 | 0.816 | 0.896 | 0.809
NCI-H650 |  | 0.883 |  | 0.973 | 0.678 | 1.02 | 0.858 | 0.94 | 1.15 | 1.02 | 0.871 | 1.02 | 0.933 | 1.27 | 0.945 | 0.943 | 1.02 | 0.951
